# Reference: PMC10762035, “Molecular basis of human trace amine-associated receptor 1 activation” (Nature Communications, 2024)
# Numbering of substitutions follows the chain as printed. “And” between values parts separate entries of the source, which are not always exact repeats. Identical values can stand only once. Like-named read-outs stand apart in the source and are kept apart here.
# Tests used:
# hTA1 I290Y = target: T1, hTA1 I290Y (Homo sapiens, UniProt Q96RJ0, I290Y); assay: GloSensor cAMP accumulation assay, I290Y mutant; format: cell-based; details: for cAMP accumulation response, normalized (concentration-response source data, single replicate values): hTA1 I290Y (N=3), log[Compound];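 for cAMP accumulation response, normalized (concentration-response source data, single replicate values): normalized to the maximum response of β-PEA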
# T1 construct: expressed in transfected cells; host or cells: HEK293T
# T1 sequence (Q96RJ0 1-339 I290Y): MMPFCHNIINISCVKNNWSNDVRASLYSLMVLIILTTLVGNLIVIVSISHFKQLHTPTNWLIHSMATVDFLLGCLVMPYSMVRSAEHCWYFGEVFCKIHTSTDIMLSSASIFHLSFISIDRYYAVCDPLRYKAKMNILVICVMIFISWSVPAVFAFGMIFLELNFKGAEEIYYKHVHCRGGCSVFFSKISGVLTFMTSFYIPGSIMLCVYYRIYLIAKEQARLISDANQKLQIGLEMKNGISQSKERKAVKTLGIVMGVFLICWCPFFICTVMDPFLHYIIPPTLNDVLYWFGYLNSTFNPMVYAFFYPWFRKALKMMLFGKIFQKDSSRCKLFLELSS
# hTA1 C96S = target: T2, hTA1 C96S (Homo sapiens, UniProt Q96RJ0, C96S); assay: GloSensor cAMP accumulation assay, C96S mutant; format: cell-based; details: log[Compound]
# T2 construct: expressed in transfected cells; host or cells: HEK293T
# T2 sequence (Q96RJ0 1-339 C96S): T1 sequence (Q96RJ0 1-339 I290Y) with C96S, Y290I
# hTA1 C88S = target: T3, hTA1 C88S (Homo sapiens, UniProt Q96RJ0, C88S); assay: GloSensor cAMP accumulation assay, C88S mutant; format: cell-based; details: C88S
# T3 construct: expressed in transfected cells; host or cells: HEK293T
# T3 sequence (Q96RJ0 1-339 C88S): T1 sequence (Q96RJ0 1-339 I290Y) with C88S, Y290I
# hTA1 T194A = target: T4, hTA1 T194A (Homo sapiens, UniProt Q96RJ0, T194A); assay: GloSensor cAMP accumulation assay, T194A mutant; details: for cAMP accumulation response, individual replicate values of the concentration-response curve: hTA1 T194A, log[Agonist], Supplementary Figure 5 source data
# T4 sequence (Q96RJ0 1-339 T194A): T1 sequence (Q96RJ0 1-339 I290Y) with T194A, Y290I
# hTA1 T271A = target: T5, hTA1 T271A (Homo sapiens, UniProt Q96RJ0, T271A); assay: GloSensor cAMP accumulation assay, T271A mutant; format: cell-based
# T5 construct: expressed in transfected cells; host or cells: HEK293T
# T5 sequence (Q96RJ0 1-339 T271A): T1 sequence (Q96RJ0 1-339 I290Y) with T271A, Y290I
compound,measurement,setting,value
CCc1[nH]nc(C(=O)Nc2ccc([C@H]3CNCCO3)cc2)c1C [ralmitaront],Emax,"hTA1 I290Y; I290Y, read-out: Span ± SEM (Emax normalized to β-PEA)",17.6 ± 2.61%
same,"Emax values, Mean","hTA1 I290Y; I290Y, single experiments (3 replicates each), β-PEA = 100",14.0517 and 22.6718 and 15.9842
same,"cAMP accumulation response, normalized (concentration-response source data, single replicate values)",hTA1 I290Y; M = -5,15.3564 and 19.3577 and 13.5096 and 22.3431 and 15.3808 and 18.6787 and 17.3474 and 21.8593 and 16.2195
same,"cAMP accumulation response, normalized (concentration-response source data, single replicate values)",hTA1 I290Y; M = -5.522,12.5863 and 17.5109 and 9.201 and 20.8774 and 14.2815 and 17.213 and 8.324 and 11.7076 and 15.0915
same,"cAMP accumulation response, normalized (concentration-response source data, single replicate values)",hTA1 I290Y; M = -6,6.738 and 15.972 and 11.3551 and 15.0144 and 31.5041 and 26.3739 and 8.324 and 3.812 and 11.7076
same,"cAMP accumulation response, normalized (concentration-response source data, single replicate values)",hTA1 I290Y; M = -6.522,9.508 and 11.6629 and 4.584 and 19.0452 and 19.7781 and 16.4801 and 8.324 (2×) and 15.0915
same,"cAMP accumulation response, normalized (concentration-response source data, single replicate values)",hTA1 I290Y; M = -7,5.199 and 18.1265 and 8.893 and 8.052 and 10.6171 and 15.0144 and 6.068 (2×) and 10.5796
same,"cAMP accumulation response, normalized (concentration-response source data, single replicate values)",hTA1 I290Y; M = -7.522,5.815 and 14.7408 and 3.6603 and 6.22 and 6.586 and 4.754 and 1.556 and -0.7002 and 0.4278
same,"cAMP accumulation response, normalized (concentration-response source data, single replicate values)",hTA1 I290Y; M = -8,4.584 and 6.738 and 6.43 and 5.853 and 4.388 and 1.823 and -2.956 and -1.828 and -0.7002
same,"cAMP accumulation response, normalized (concentration-response source data, single replicate values)",hTA1 I290Y; M = -8.522,-1.264 and 1.506 and 0.8902 and -4.04 and -4.407 and 4.021 and -5.212 and -4.0841 and -2.956
same,"cAMP accumulation response, normalized (concentration-response source data, single replicate values)",hTA1 I290Y; M = -9,-2.496 and -0.341 and -1.88 and -5.14 and -1.109 and 9.151 and -5.212 and -4.0841 and -2.956
same,"cAMP accumulation response, normalized (concentration-response source data, single replicate values)",hTA1 I290Y; M = -9.522,-3.7267 and -1.264 and -2.803 and -1.475 and -4.407 and 4.388 and -4.0841 (2×) and -2.956
same,"cAMP accumulation response, normalized (concentration-response source data, single replicate values)",hTA1 I290Y; M = -10,-2.188 (2×) and -0.6488 and -5.873 and -0.7424 and -6.239 and -2.956 (2×) and -1.828
same,"cAMP accumulation response, normalized (concentration-response source data, single replicate values)",hTA1 I290Y; M = -10.522,-2.496
same,Normalized Luminescence Counts,"hTA1 C96S; C96S, M = -5, single replicates (N=2)",1.4045 and -2.55 and -5.186 and -2.698 and 26.3511 and -6.571
same,Normalized Luminescence Counts,"hTA1 C96S; C96S, M = -5.522, single replicates (N=2)",-3.209 and -4.527 and -5.845 and -4.6346 and 8.922 and -0.7614
same,Normalized Luminescence Counts,"hTA1 C96S; C96S, M = -6, single replicates (N=2)",-3.209 and -2.55 and -5.186 and 8.922 and 1.175 and 18.6047
same,Normalized Luminescence Counts,"hTA1 C96S; C96S, M = -6.522, single replicates (N=2)",-5.186 (2×) and -3.209 and -6.571 and -12.381 and 39.9073
same,Normalized Luminescence Counts,"hTA1 C96S; C96S, M = -7, single replicates (N=2)",-5.845 and -1.232 and -3.868 and 3.112 and -12.381 and 8.922
same,Normalized Luminescence Counts,"hTA1 C96S; C96S, M = -7.522, single replicates (N=2)",-5.845 and -2.55 and -6.504 and 10.8582 (2×) and -6.571
same,Normalized Luminescence Counts,"hTA1 C96S; C96S, M = -8, single replicates (N=2)",-1.232 and -0.5726 and -2.55 and 20.5413 and -0.7614 and 37.9707
same,Normalized Luminescence Counts,"hTA1 C96S; C96S, M = -8.522, single replicates (N=2)",-1.891 (2×) and -3.209 and -0.7614 (2×) and 14.7315
same,Normalized Luminescence Counts,"hTA1 C96S; C96S, M = -9, single replicates (N=2)",-3.209 and -0.5726 and -2.55 and 6.985 and 8.922 and 5.048
same,Normalized Luminescence Counts,"hTA1 C96S; C96S, M = -9.522, single replicates (N=2)",-3.209 and -3.868 and -1.232 and 24.4145 and 3.112 and -8.508
same,Normalized Luminescence Counts,"hTA1 C96S; C96S, M = -10, single replicates (N=2)",-3.868 and -0.5726 and -1.232 and -0.7614 and -16.2542 (2×)
same,Normalized Luminescence Counts,"hTA1 C96S; C96S, M = -10.522, single replicates (N=2)",-2.55 (2×) and -1.232 and -6.571 and -22.0641 and -10.4444
same,Normalized Luminescence Counts,"hTA1 C96S; C96S, M = -11, single replicates (N=2)",0.7455 and 2.064 and -1.232 and 20.5413 and -12.381 and -10.4444
same,Normalized Luminescence Counts,"hTA1 C96S; C96S, M = -11.522, single replicates (N=2)",0.7455 and 3.382 and 1.4045 and 16.6681
same,Normalized Luminescence Counts,"hTA1 C96S; M = -11.522, single replicates, mutant block above C178S",-0.2239 and -0.1784 and -0.4742 and 3.153 and 1.07 and 2.833
same,Normalized Luminescence Counts,"hTA1 C96S; M = -12, single replicates, mutant block above C178S",-0.6336 and -0.2466 and -0.7474 and 2.192 and 1.657 and 3.26
same,Normalized Luminescence Counts,"hTA1 C96S; M = -12.522, single replicates, mutant block above C178S",-0.7701 (2×) and -0.4515 and 1.764 and 0.7492 and 1.497
same,Emax values,hTA1 C88S; Mean of fit per experiment,92.8994 and 62.9388
same,Emax,"hTA1 C88S; n=2, read-out: Span ± SEM (Emax normalized to β-PEA)",77.9 ± 15%
same,Emax,"hTA1 C88S; relative to β-PEA, read-out: Emax",77.9%
same,"Emax values, Mean","hTA1 T194A; T149A (so in the source), single experiments (3 replicates each), β-PEA = 100",41.3499 and 73.0935 and 32.2156
same,"cAMP accumulation response, individual replicate values of the concentration-response curve",hTA1 T194A; M = -7.522,13.1191 and 7.983 and 9.958 and 19.2742 and 14.6569 and 26.511
same,"cAMP accumulation response, individual replicate values of the concentration-response curve",hTA1 T194A; M = -8,2.846 and 8.97 and 3.241 and 12.5702 and 15.1897 and 10.4391
same,"cAMP accumulation response, individual replicate values of the concentration-response curve",hTA1 T194A; M = -8.522,0.8706 and -0.5123 and 0.673 and 2.359 and 3.025 and 2.8472
same,"cAMP accumulation response, individual replicate values of the concentration-response curve",hTA1 T194A; M = -9,-1.105 and -0.3148 and -1.895 and 1.693 and 2.048 and 2.27
same,"cAMP accumulation response, individual replicate values of the concentration-response curve",hTA1 T194A; M = -9.522,-1.895 and -1.698 and -1.5 and -0.7934 and 0.4941 and -0.3494
same,"cAMP accumulation response, individual replicate values of the concentration-response curve",hTA1 T194A; M = -10,-0.9074 and -1.105 (2×) and -0.2606 and -0.1274 and 0.9825
same,"cAMP accumulation response, individual replicate values of the concentration-response curve",hTA1 T194A; M = -10.522,-2.29 and -1.105 (2×) and -0.971 and -0.5714 and -0.1274
same,"cAMP accumulation response, individual replicate values of the concentration-response curve",hTA1 T194A; M = -11,-1.105 (2×) and -0.5123 and -0.1274 and -0.527 and -0.3938
same,"cAMP accumulation response, individual replicate values of the concentration-response curve",hTA1 T194A; M = -11.522,-1.5 and -0.9074 and -1.895 and -0.4826 and 0.2722 and -0.3494
same,"cAMP accumulation response, individual replicate values of the concentration-response curve",hTA1 T194A; M = -12,-1.105 (2×) and -0.5123 and -0.8378 and -0.9266 and 0.05017
same,"cAMP accumulation response, individual replicate values of the concentration-response curve",hTA1 T194A; M = -12.522,-0.5123 and -1.105 (2×) and -0.527 and 0.05017 and -0.6158
same,Emax,"hTA1 T194A; read-out: Span ± SEM (Emax normalized to β-PEA), T194A",48.9 ± 20.4%
same,"ΔpEC50 values (each mutant value - WT average), Mean","hTA1 T271A; T271A mutant minus WT average, Figure 5B",-0.01384
same,"Emax values, Mean","hTA1 T271A; T271A mutant, Figure 5B, β-PEA = 100, each row one independent experiment (3 replicates)",56.995
same,Emax,"hTA1 T271A; T271A mutant, Figure 5B, β-PEA = 100, each row one independent experiment (3 replicates), read-out: Emax values, Mean",65.2%
same,Emax,"hTA1 T271A; T271A, n=2, read-out: Span ± SEM (Emax normalized to β-PEA)",61.1 ± 4.08%
